Experimental data published in ChEMBL document CHEMBL1130491, “Nonpeptide bradykinin antagonist analogs based on a model of a Sterling-Winthrop nonpeptide bradykinin antagonist overlapped with cyclic hexapeptide bradykinin antagonist peptides” (Bioorg Med Chem Lett, 1997).

Tests used:
[1] = Binding affinity towards human Bradykinin receptor, activity expressed as Kd
[2] = target: Substance-P receptor (Homo sapiens, UniProt P25103); test: Binding affinity towards Tachykinin receptor 1, activity expressed as Kd
Sequence of Substance-P receptor (P25103 whole entry): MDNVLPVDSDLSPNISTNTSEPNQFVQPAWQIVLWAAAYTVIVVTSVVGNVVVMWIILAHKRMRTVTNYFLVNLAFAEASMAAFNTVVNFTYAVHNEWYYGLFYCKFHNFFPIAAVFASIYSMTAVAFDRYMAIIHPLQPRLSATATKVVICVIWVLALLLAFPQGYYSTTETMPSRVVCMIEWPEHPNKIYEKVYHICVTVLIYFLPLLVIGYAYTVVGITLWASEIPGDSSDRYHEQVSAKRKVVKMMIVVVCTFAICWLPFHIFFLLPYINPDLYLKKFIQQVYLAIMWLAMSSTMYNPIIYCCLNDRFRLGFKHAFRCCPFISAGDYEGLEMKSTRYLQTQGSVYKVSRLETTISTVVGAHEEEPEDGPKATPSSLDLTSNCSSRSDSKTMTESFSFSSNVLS

Compound | Kd [1] [nM] | Kd [2] [nM]
NC(N)=NCCC[C@@H](N)C(=O)NCc1ccc(NC(=O)[C@H](Cc2ccc3ccccc3c2)N=C(NC2CCCCC2)NC2CCCCC2)cc1 | 230 | 
CCCC[P+](CCCC)(CCCC)Cc1ccc(NC(=O)[C@H](Cc2ccc3ccccc3c2)N=C(NC2CCCCC2)NC2CCCCC2)cc1 | 340 | 670
CCCC[N+](CCCC)(CCCC)Cc1ccc(NC(=O)[C@H](Cc2ccc3ccccc3c2)N=C(NC2CCCCC2)NC2CCCCC2)cc1 | 98 | 540
O=C(Nc1ccc(CO)cc1)[C@H](Cc1ccc2ccccc2c1)N/C(=N/C1CCCCC1)NC1CCCCC1 | 2100 | 
N=C(N)NCCC[C@@H](NC(=O)C12CC3CC(CC(C3)C1)C2)C(=O)NCc1ccc(NC(=O)[C@H](Cc2ccc3ccccc3c2)N=C(NC2CCCCC2)NC2CCCCC2)cc1 | 990 | 
CCCC[P+](CCCC)(CCCC)Cc1ccc(NC(=O)[C@H](Cc2ccc3ccccc3c2)NC(=O)NC2CCCCC2)cc1 | 1600 | 1300
CCCC[P+](CCCC)(CCCC)Cc1ccc(NC(=O)[C@@H](Cc2ccc3ccccc3c2)N=C(NC2CCCCC2)NC2CCCCC2)cc1 | 44 | 370
CC/N=C(\NCC)NCc1ccc(NC(=O)[C@H](Cc2ccc3ccccc3c2)N=C(NC2CCCCC2)NC2CCCCC2)cc1 | 460 | 1800
CCCC[N+](CCCC)(CCCC)Cc1ccc(NC(=O)[C@@H](Cc2ccc3ccccc3c2)N=C(NC2CCCCC2)NC2CCCCC2)cc1 | 79 | 290

Further lines, results first:

Kd [1] [nM] | Kd [2] [nM] | Compound
1500 |  | O=C(Nc1ccc(CO)cc1)[C@@H](Cc1ccc2ccccc2c1)N=C(NC1CCCCC1)NC1CCCCC1
800 | 1300 | NCc1ccc(NC(=O)[C@H](Cc2ccc3ccccc3c2)N=C(NC2CCCCC2)NC2CCCCC2)cc1
330 | 1100 | N=C(N)NCc1ccc(NC(=O)[C@H](Cc2ccc3ccccc3c2)N=C(NC2CCCCC2)NC2CCCCC2)cc1
390 | 1500 | NC(N)=NCCC[C@H](N)C(=O)NCc1ccc(NC(=O)[C@H](Cc2ccc3ccccc3c2)N=C(NC2CCCCC2)NC2CCCCC2)cc1
1500 |  | NCc1ccc(N(CCC(=O)O)C(=O)[C@H](Cc2ccc3ccccc3c2)N=C(NC2CCCCC2)NC2CCCCC2)cc1
200 | 860 | N=C(N)NCc1ccc(NC(=O)[C@@H](Cc2ccc3ccccc3c2)N=C(NC2CCCCC2)NC2CCCCC2)cc1
450 |  | NCc1ccc(NC(=O)[C@@H](Cc2ccc3ccccc3c2)N=C(NC2CCCCC2)NC2CCCCC2)cc1
690 | 3800 | NCc1ccc(NC(=O)[C@H](Cc2ccc3ccccc3c2)N=C(NC2CCCCC2)NC2CCCCC2)c(C(=O)O)c1
